Laboratory results: patent publication US4556673A, “Use of phthalyltaurine sulfonamide derivatives in treating epilepsy and arrythmia” (priority 1980, dated 1985)
Like-named read-outs stand apart in the source and are kept apart here.

Tests used:
[1] = test system: convulsions induced by electrical stimulation (maximal electroshock); assay: Maximal electroshock test (MES), 50 mA electrical stimulation; format: in vivo, mice; settings: Mus musculus, ip, read-out: Anticonvulsive activity ED50, MES
Source text: (§1) The anticonvulsive effect of the compounds was studied on three types of experimental epilepsy. Convulsions were induced in mice by subcutaneous administration of pentylene tetrazole or strychnine, or by electrical stimulation with a 50 mA current (E. A. Swinyard, Assay of antiepileptic drug activity in experimental animals: Standard tests in International Enocyclopedica of Pharmacology and Therapeutics, Section 19, vol 1: Anticonvulsant Drugs, 1972). […] No sedative effect could be observed.
MES = maximal electroshock test

[2] = test system: convulsions induced by pentylene tetrazole; assay: Metrazole (pentylene tetrazole) convulsant threshold test (MET); format: in vivo, mice; settings: Mus musculus, ip, read-out: Anticonvulsive activity ED50, MET
Source text: as §1
MET = metrazole (= pentylene tetrazole) convulsant threshold test.

[3] = test system: convulsions induced by strychnine; assay: Strychnine convulsant threshold test (STR); format: in vivo, mice; settings: Mus musculus, ip, read-out: Anticonvulsive activity ED50, STR
Source text: as §1
STR = strychnine convulsant threshold test

[4] = test system: arrhythmia in guinea-pigs after infusion of ouabain; assay: Ouabain-induced arrhythmia in guinea-pigs; settings: for Ouabain dose ± SE, inducing arrhythmia / Ouabain dose ± SE, inducing asystole: ouabain 20 μg/kg/min.
Source text: Arrhythmia was induced by K^+ deficiency and by aconitine. […] Besides the above-described in vitro tests, an in vivo method was used: the antiarrhythmic effect of the compounds was studied in quineapigs with ouabain-induced arrhythmia.

[5] = test system: bacteria; settings: cited from earlier work
[6] = test system: hexobarbiturate-induced sleep in mice; assay: Hexobarbiturate-induced sleep; format: in vivo
[7] = test system: convulsions induced by pentylene tetrazole, strychnine or electrical stimulation; assay: Anticonvulsive effect in three types of experimental epilepsy; format: in vivo, mice; settings: in words
Source text: as §1

[8] = test system: arrhythmia; assay: Antiarrhythmic effect (general statement); settings: in words
Source text: Isolated perfused rat heart, prepared after the method of Langendorff, and isolated spontaneously beating rat atria (W. C. Holland & J. H. Burn, J. Brit. Med., vol 1, 1031, 1958) were used for studies of the antiarrhythmic effect of the compounds. Arrhythmia was induced by K^+ deficiency and by aconitine. […] Besides the above-described in vitro tests, an in vivo method was used: the antiarrhythmic effect of the compounds was studied in quineapigs with ouabain-induced arrhythmia.

[9] = injectable forms; cited from earlier work
[10] = mice, intraperitoneal; cited from earlier work
[11] = test system: experimental epilepsy; settings: several types of experimental epilepsy; cited from earlier work
[12] = test system: epileptic patients; settings: cited from earlier work
[13] = mice, maximal electroshock test
[14] = mice, metrazole convulsant threshold test
[15] = O-value (initial), group dosed 12 mg/kg iv
[16] = O-value (initial), group dosed 3 mg/kg iv
[17] = O-value (initial), group dosed 6 mg/kg iv

Row | SMILES | ED50 [1, 13] | ED50 [2, 14] | ED50 [3] | HR ± SE, 5 min. after adm. of test compound ([4]; 3 mg/kg iv) | Ouabain dose ± SE, inducing arrhythmia ([4]; 3 mg/kg iv) | Ouabain dose ± SE, inducing asystole ([4]; 3 mg/kg iv) | HR ± SE, 5 min. after adm. of test compound ([4]; 6 mg/kg iv) | Ouabain dose ± SE, inducing arrhythmia ([4]; 6 mg/kg iv) | Ouabain dose ± SE, inducing asystole ([4]; 6 mg/kg iv) | HR ± SE, O-value [4, 16] | HR ± SE, O-value [4, 17] | other results
1 | NS(=O)(=O)CCN1C(=O)c2ccccc2C1=O [2-Phthalimidoethanesulfone amide, 2-phthalimidoethane sulfonamide] | 122 mg/kg | > 300 mg/kg | 93 mg/kg |  |  |  |  |  |  |  |  | HR ± SE, 5 min. after adm. of test compound ([4]; 12 mg/kg iv): 330 beats/min.; Ouabain dose ± SE, inducing arrhythmia ([4]; 12 mg/kg iv): 170 µg/kg; Ouabain dose ± SE, inducing asystole ([4]; 12 mg/kg iv): 220 µg/kg; HR ± SE, O-value [4, 15]: 333 beats/min.; Antibacterial properties [5]: did not come up to expectations
2 | CN(C)S(=O)(=O)CCN1C(=O)c2ccccc2C1=O [2-Phthalimidoethanesulfone dimethylamide, 2-phthalimidoethanesulfone dimethylamide] | 113 mg/kg | 231 mg/kg | 234 mg/kg |  |  |  |  |  |  |  |  | Antibacterial properties [5]: did not come up to expectations
3 | CCNS(=O)(=O)CCN1C(=O)c2ccccc2C1=O [2-Phthalimidoethanesulfone ethylamide] | 103 mg/kg | 138 mg/kg | 126 mg/kg | 332 ± 16 beats/min. | 175 ± 5 µg/kg | 318 ± 22 µg/kg | 270 beats/min. | 150 µg/kg | 360 µg/kg | 332 ± 22 beats/min. | 285 beats/min. | 
4 | CC(C)NS(=O)(=O)CCN1C(=O)c2ccccc2C1=O [2-Phthalimidoethanesulfone isopropylamide] |  |  | 227 mg/kg | 312 ± 27 beats/min. | 197 ± 32 µg/kg | 297 ± 27 µg/kg | 291 beats/min. | 155 µg/kg | 290 µg/kg | 321 ± 39 beats/min. | 303 beats/min. | ED50 [1]: 130 mg/kg; ED50 [2]: > 300 mg/kg
5 | CNS(=O)(=O)CCN1C(=O)c2ccccc2C1=O [2-Phthalimidoethanesulfone methylamide] | 112 mg/kg | 170 mg/kg | 189 mg/kg |  |  |  | 255 ± 51 beats/min. | 188 ± 17 µg/kg | 345 ± 20 µg/kg |  | 261 ± 45 beats/min. | HR ± SE, 5 min. after adm. of test compound ([4]; 12 mg/kg iv): 399 ± 22 beats/min.; Ouabain dose ± SE, inducing arrhythmia ([4]; 12 mg/kg iv): 195 ± 15 µg/kg; Ouabain dose ± SE, inducing asystole ([4]; 12 mg/kg iv): 265 ± 50 µg/kg; HR ± SE, O-value [4, 15]: 369 ± 30 beats/min.
6 | CCCCNS(=O)(=O)CCN1C(=O)c2ccccc2C1=O [2-Phthalimidoethanesulfone n-butylamide] | 219 mg/kg | > 300 mg/kg |  | 213 beats/min. | 175 µg/kg | 340 µg/kg | 256 ± 43 beats/min. | 200 ± 0 µg/kg | 382 ± 37 µg/kg | 210 beats/min. | 256 ± 19 beats/min. | 
7 | CCCNS(=O)(=O)CCN1C(=O)c2ccccc2C1=O [2-Phthalimidoethanesulfone n-propylamide] | 252 mg/kg | > 300 mg/kg | > 300 mg/kg | 294 ± 45 beats/min. | 160 ± 10 µg/kg | 322 ± 62 µg/kg |  |  |  | 286 ± 55 beats/min. |  | HR ± SE, 5 min. after adm. of test compound ([4]; 2 mg/kg iv): 243 ± 18 beats/min.; Ouabain dose ± SE, inducing arrhythmia ([4]; 2 mg/kg iv): 165 ± 10 µg/kg; Ouabain dose ± SE, inducing asystole ([4]; 2 mg/kg iv): 272 ± 27 µg/kg; HR ± SE, O-value ([4]; O-value (initial), group dosed 2 mg/kg iv): 229 ± 34 beats/min.
8 | O=C1c2ccccc2C(=O)N1CCS(=O)(=O)N1CCCC1 [2-Phthalimidoethanesulfone pyrrolidide] | > 300 mg/kg | > 300 mg/kg |  |  |  |  |  |  |  |  |  | 
9 | CC(C)(C)NS(=O)(=O)CCN1C(=O)c2ccccc2C1=O [2-Phthalimidoethanesulfone tert-butylamide] | > 300 mg/kg | > 300 mg/kg |  |  |  |  |  |  |  |  |  | 
10 | CC(=O)NS(=O)(=O)CCN1C(=O)c2ccccc2C1=O [2-Phthalimidoethanesulfonyl acetamide, 2-phthalimidoethanesulfonyl acetamide] | > 300 mg/kg | > 300 mg/kg |  | 259 ± 10 beats/min. | 215 ± 24 µg/kg | 355 ± 20 µg/kg | 334 ± 11 beats/min. | 212 ± 16 µg/kg | 345 ± 26 µg/kg | 260 ± 9 beats/min. | 329 ± 15 beats/min. | HR ± SE, 5 min. after adm. of test compound ([4]; 1 mg/kg iv): 316 ± 10 beats/min.; Ouabain dose ± SE, inducing arrhythmia ([4]; 1 mg/kg iv): 185 ± 5 µg/kg; Ouabain dose ± SE, inducing asystole ([4]; 1 mg/kg iv): 307 ± 2 µg/kg; HR ± SE, 5 min. after adm. of test compound ([4]; 12 mg/kg iv): 349 ± 19 beats/min.; Ouabain dose ± SE, inducing arrhythmia ([4]; 12 mg/kg iv): 210 ± 16 µg/kg; Ouabain dose ± SE, inducing asystole ([4]; 12 mg/kg iv): 360 ± 13 µg/kg; HR ± SE, O-value ([4]; O-value (initial), group dosed 1 mg/kg iv): 292 ± 1 beats/min.; HR ± SE, O-value [4, 15]: 329 ± 19 beats/min.; Prolongation of hexobarbiturate-induced sleep [6]: did not prolong the time of sleep; Anticonvulsive effect [7]: no anticonvulsive effect; Antiarrhythmic effect [8]: had an antiarrhythmic
11 | CC(=O)NCCS(=O)(=O)O [N-acetyl taurine] |  |  |  |  |  |  |  |  |  |  |  | Penetration of the blood-brain barrier [9]: penetrate the bloodbrain barrier
12 | CC(C)(C)C(=O)NCCS(=O)(=O)O [N-pivaloyl taurine] |  |  |  |  |  |  |  |  |  |  |  | Penetration of the blood-brain barrier [10]: penetrated the blood-brain barrier
13 | CC(C)NCC(O)COc1cccc2ccccc12 (stereo not drawn) [Propranolol, reference compound] |  |  |  |  | 295 ± 35 µg/kg | 435 ± 24 µg/kg |  | 269 ± 39 µg/kg | 418 ± 34 µg/kg |  |  | Ouabain dose ± SE, inducing arrhythmia ([4]; 1 mg/kg iv): 240 ± 5 µg/kg; Ouabain dose ± SE, inducing asystole ([4]; 1 mg/kg iv): 363 ± 11 µg/kg; HR ± SE, O-value ([4]; guinea pig, in vivo, iv, 1 mg/kg): 280 ± 17 beats/min.; HR ± SE, O-value ([4]; guinea pig, in vivo, iv, 3 mg/kg): 293 ± 17 beats/min.; HR ± SE, O-value ([4]; guinea pig, in vivo, iv, 6 mg/kg): 301 ± 10 beats/min.; Bradycardia ([4]; guinea-pigs): caused bradycardia
14 | NCCS(=O)(=O)O [Taurine, 2-aminoethanesulfonic acid] |  |  |  |  |  |  |  |  |  |  |  | Direct central anticonvulsive effect [11]: direct central anticonvulsive effect; Antiepileptic action [12]: antiepileptic action
